Measured values from ChEMBL document CHEMBL1130517 (Bioorg Med Chem Lett, 1997).

Columns and labels:
[1] = target: T1, Endothelin receptor type B (Homo sapiens, UniProt P24530); test: Receptor binding affinity was determined against [125I]ET1 with membranes prepared from human placenta for ETB receptor
T1 sequence (P24530 whole entry): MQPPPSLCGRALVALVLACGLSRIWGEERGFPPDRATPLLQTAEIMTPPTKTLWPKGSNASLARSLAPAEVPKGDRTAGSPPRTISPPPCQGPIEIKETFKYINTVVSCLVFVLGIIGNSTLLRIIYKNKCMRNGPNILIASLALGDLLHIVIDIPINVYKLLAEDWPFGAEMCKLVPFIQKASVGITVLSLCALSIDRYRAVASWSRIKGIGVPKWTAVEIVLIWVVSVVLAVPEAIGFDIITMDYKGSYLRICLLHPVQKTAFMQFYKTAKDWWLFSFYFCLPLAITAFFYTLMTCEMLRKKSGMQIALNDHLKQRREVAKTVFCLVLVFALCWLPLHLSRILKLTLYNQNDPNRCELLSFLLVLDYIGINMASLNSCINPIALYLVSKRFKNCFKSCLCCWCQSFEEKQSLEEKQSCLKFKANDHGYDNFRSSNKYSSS

Endothelin-1 receptor [2] = target: T2, Endothelin-1 receptor (Homo sapiens, UniProt P25101); test: Receptor binding affinity was determined against [125I]ET1 with recombinant human ETA receptor, expressed in baculovirus-infected Sf9 cells
T2 sequence (P25101 whole entry): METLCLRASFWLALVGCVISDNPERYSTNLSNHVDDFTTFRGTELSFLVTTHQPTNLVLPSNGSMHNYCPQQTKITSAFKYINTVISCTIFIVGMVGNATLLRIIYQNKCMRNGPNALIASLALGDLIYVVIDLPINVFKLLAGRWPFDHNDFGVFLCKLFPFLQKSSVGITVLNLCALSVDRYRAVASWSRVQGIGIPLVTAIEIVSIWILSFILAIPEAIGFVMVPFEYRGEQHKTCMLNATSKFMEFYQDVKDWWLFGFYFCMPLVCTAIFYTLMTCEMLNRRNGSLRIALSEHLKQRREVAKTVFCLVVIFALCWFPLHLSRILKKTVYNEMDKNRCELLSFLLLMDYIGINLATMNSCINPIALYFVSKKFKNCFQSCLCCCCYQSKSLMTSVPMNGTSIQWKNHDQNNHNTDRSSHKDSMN

Endothelin-1 receptor [3] = target: T3, Endothelin-1 receptor (Rattus norvegicus, UniProt P26684); test: Evaluation for functional inhibitory potency prevention of ET-1 induced constriction of rat aortic rings (ETA receptors); conditions: read-out: pA2 (converted)
T3 sequence (P26684 whole entry): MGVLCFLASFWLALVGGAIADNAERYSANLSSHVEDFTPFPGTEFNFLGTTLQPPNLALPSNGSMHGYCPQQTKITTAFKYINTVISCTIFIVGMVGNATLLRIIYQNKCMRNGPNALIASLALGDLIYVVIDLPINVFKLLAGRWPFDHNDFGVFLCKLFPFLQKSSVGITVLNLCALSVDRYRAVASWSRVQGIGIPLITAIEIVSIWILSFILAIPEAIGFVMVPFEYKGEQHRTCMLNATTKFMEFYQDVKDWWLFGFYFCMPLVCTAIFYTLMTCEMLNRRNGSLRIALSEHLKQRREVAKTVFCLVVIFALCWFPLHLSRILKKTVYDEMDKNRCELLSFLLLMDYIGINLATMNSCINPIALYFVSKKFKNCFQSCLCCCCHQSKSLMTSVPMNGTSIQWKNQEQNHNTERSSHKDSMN

[4] = target: T4, Endothelin receptor type B (Rattus norvegicus, UniProt P21451); test: Compound was evaluated for in vitro functional inhibitory potency for prevention of sarafotoxin S6c induced constriction of rat tracheal rings (ETB receptors); conditions: read-out: pA2 (converted)
T4 sequence (P21451 whole entry): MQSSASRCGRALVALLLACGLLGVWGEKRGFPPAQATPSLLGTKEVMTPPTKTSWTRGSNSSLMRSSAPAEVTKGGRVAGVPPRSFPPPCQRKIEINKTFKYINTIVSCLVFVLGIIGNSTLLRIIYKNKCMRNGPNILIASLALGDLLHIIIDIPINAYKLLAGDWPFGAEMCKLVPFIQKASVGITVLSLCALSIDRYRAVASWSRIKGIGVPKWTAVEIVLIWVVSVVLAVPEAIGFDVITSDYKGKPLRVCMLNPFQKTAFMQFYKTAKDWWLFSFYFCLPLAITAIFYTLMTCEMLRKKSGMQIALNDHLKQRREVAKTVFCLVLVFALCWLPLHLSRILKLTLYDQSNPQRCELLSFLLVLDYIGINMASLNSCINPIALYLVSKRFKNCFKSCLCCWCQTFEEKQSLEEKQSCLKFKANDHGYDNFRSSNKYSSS

Endothelin-1 receptor [5] = target: T3, Endothelin-1 receptor; test: Compound was evaluated for in vitro functional inhibitory potency for prevention of ET-1 induced constriction of rat aortic rings (ETA receptors); conditions: read-out: pA2 (converted)
Endothelin-1 receptor [6] = target: T2, Endothelin-1 receptor; test: Receptor binding affinity was determined in a radioligand binding assay against [125I]ET1 with recombinant human ETA receptor, expressed in baculovirus-infected […] cells

Row | IC50 [1] [nM] | IC50 (Endothelin-1 receptor [2]) [nM] | Kb (Endothelin-1 receptor [3]) [nM] | SMILES | Kb [4] [nM] | Kb (Endothelin-1 receptor [5]) [nM] | IC50 (Endothelin-1 receptor [6]) [nM]
1 | 170 | 4 | 1 | COc1ccccc1Oc1c(NS(=O)(=O)c2ccc(C)cn2)nc(-c2ncccn2)nc1OCCOC(=O)Nc1ccccn1 | – | – | –
2 | 25 | 3 | 5.01 | COc1ccccc1Oc1c(NS(=O)(=O)c2ccc(C(C)C)cn2)nc(N2CCCCC2)nc1OCCOC(=O)Nc1ccccn1 | – | – | –
3 | 49 | 4 | 0.1 | COc1ccccc1Oc1c(NS(=O)(=O)c2ccc(C(C)C)cn2)nc(-c2ncccn2)nc1OCCOC(=O)Nc1ccccn1 | – | – | –
4 | 43 | – | 1 | COc1ccccc1Oc1c(NS(=O)(=O)c2ccc(C(C)(C)C)cc2)nc(-c2ncccn2)nc1OCCOC(=O)Nc1ccccn1 | – | – | –
5 | 200 | 30 | 10 | COc1ccccc1Oc1c(NS(=O)(=O)c2ccc(C(C)(C)C)cc2)nc(-c2cccs2)nc1OCCOC(=O)Nc1ccccn1 | – | – | –
6 | 14 | 1 | 1.58 | COc1ccccc1Oc1c(NS(=O)(=O)c2ccc(C(C)C)cn2)nc(N2CCSCC2)nc1OCCOC(=O)Nc1ccccn1 | – | – | –
7 | 25 | 0.2 | 0.2 | COc1ccccc1Oc1c(NS(=O)(=O)c2ccc(C)cn2)nc(N2CCOCC2)nc1OCCOC(=O)Nc1ccccn1 | – | – | –

More lines, now with the values behind:

Row | SMILES | IC50 [1] [nM] | IC50 (Endothelin-1 receptor [2]) [nM] | Kb (Endothelin-1 receptor [3]) [nM] | Kb [4] [nM] | Kb (Endothelin-1 receptor [5]) [nM] | IC50 (Endothelin-1 receptor [6]) [nM]
8 | COc1ccccc1Oc1c(NS(=O)(=O)c2ccc(C(C)(C)C)cc2)nc(C)nc1OCCOC(=O)Nc1ccccn1 | 120 | 8 | – | – | – | –
9 | COc1ccccc1Oc1c(NS(=O)(=O)c2ccc(C(C)(C)C)cc2)nc(C)nc1OCCO | 70 | 1500 | – | – | – | –
10 | CNCC(=O)OCCOc1nc(C)nc(NS(=O)(=O)c2ccc(C(C)(C)C)cc2)c1Oc1ccccc1OC | 300 | 1700 | – | – | – | –
11 | COc1ccccc1Oc1c(NS(=O)(=O)c2ccc(C(C)(C)C)cc2)nc(C)nc1OCCOC(=O)c1ccoc1 | 1000 | 1100 | – | – | – | –
12 | COc1ccccc1Oc1c(NS(=O)(=O)c2ccc(C(C)(C)C)cc2)nc(C(C)(C)C)nc1OCCOC(=O)Nc1ccccn1 | 144 | 14 | 25.1 | – | – | –
13 | COc1ccccc1Oc1c(NS(=O)(=O)c2ccc(C(C)(C)C)cc2)nc(C)nc1OCCOC(=O)Nc1ccncc1 | 2800 | 1900 | – | – | – | –
14 | COc1ccccc1Oc1c(NS(=O)(=O)c2ccc(C(C)(C)C)cc2)nc(N2CCOCC2)nc1OCCOC(=O)Nc1ccccn1 | 19 | 17 | 10 | – | – | –
15 | COc1ccccc1Oc1c(NS(=O)(=O)c2ccc(C(C)(C)C)cc2)nc(-c2ncccn2)nc1OCCO [BOSENTAN] | – | – | – | 1580 | 50.1 | –
16 | COc1ccccc1Oc1c(NS(=O)(=O)c2ccc(C(C)(C)C)cc2)nc(C)nc1OCCOC(=O)c1cccnc1 | 770 | 880 | – | – | – | –
17 | COc1ccccc1Oc1c(NS(=O)(=O)c2ccc(C(C)C)cn2)nc(N2CCOCC2)nc1OCCOC(=O)Nc1ccccn1 | 5 | 0.3 | – | 25.1 | 0.501 | 0.7
18 | COc1ccccc1Oc1c(NS(=O)(=O)c2ccc(C(C)(C)C)cc2)nc(C)nc1OCCOC(=O)Nc1cccnc1 | 700 | 900 | – | – | – | –
19 | COc1ccccc1Oc1c(NS(=O)(=O)c2ccc(C(C)(C)C)cc2)nc(C2CC2)nc1OCCOC(=O)Nc1ccccn1 | 60 | 7 | 20 | – | – | –
20 | COc1ccccc1Oc1c(NS(=O)(=O)c2ccc(C(C)(C)C)cc2)nc(C)nc1OCCNC(=O)Nc1ccccn1 | 1240 | 80 | – | – | – | –
21 | COc1ccccc1Oc1c(NS(=O)(=O)c2ccc(C(C)(C)C)cc2)nc(C(C)C)nc1OCCOC(=O)Nc1ccccn1 | 160 | 7 | 15.8 | – | – | –
22 | CCCc1nc(NS(=O)(=O)c2ccc(C(C)(C)C)cc2)c(Oc2ccccc2OC)c(OCCOC(=O)Nc2ccccn2)n1 | 63 | 9 | 12.6 | – | – | –
